Source: patent publication US12448491B2, “Nano-patterend conductive polymer substrate with improved cell alignment, maturity, adhesion, and connectivity and method for manufacturing same” (priority 2022, dated 2025)

Legend:
cardiomyocytes = assay: Drug screening on bare and embedded PDMS cantilevers (beat displacement); format: cell-based, rat; settings: for displacement reduction: 10 nM drug; for contraction returned compared with before drug treatment: 24 h after media replacement
Excerpt: To quantitatively analyze the correlation between cell maturation and drug toxicity, polymer cantilever arrays composed of the bare thin film and the embedded thin film were fabricated.

[1] = tested on: human-induced pluripotent stem cell-cardiomyocytes (hiPSC-CMs); assay: Comparison of NRVM and hiPSC-CM in drug test (hiPSC-CM); format: cell-based
Excerpt: (§1) There are several similarities and differences in the drug response between animal and human cardiomyocytes.

[2] = tested on: neonatal rat ventricular myocytes (NRVMs); assay: Comparison of NRVM and hiPSC-CM in drug test (NRVM); format: cell-based; settings: animal cells
Excerpt: as §1

[3] = tested on: human-induced pluripotent stem cell-cardiomyocytes (hiPSC-CMs); assay: Drug screening for hiPSC-CMs on bare and embedded PDMS; format: cell-based; settings: after 48 h
Experimental: Since pre-clinical studies on rats could not completely predict effects on the human heart, human-induced pluripotent stem cell-cardiomyocytes (hiPSC-CMs) had significant advantages over the use of animal models. To further investigate the responses of different drugs on immature and mature cardiomyocytes in human cells, hiPSC-CMs were cultured.

Compound	resistance of cardiomyocytes to the drug (cardiomyocytes; cultured on embedded PDMS, FIGS. 17B and 17C)	IC50 ([1]; (b) of FIG. 20A, NRVM vs hiPSC-CM comparison, cell type of the value not stated)	tendency of beat frequency and contraction with increasing drug ([1]; human cells)	tendency of beat frequency and contraction with increasing drug [2]	contraction force returned after replacement of culture ([3]; hiPSC-CMs on bare PDMS)	contraction force returned after replacement of culture ([3]; hiPSC-CMs on embedded PDMS)	displacement reduction (cardiomyocytes; bare PDMS cantilever)	displacement reduction (cardiomyocytes; embedded PDMS cantilever)	beating of cardiomyocytes (cardiomyocytes; 1 μM drug, cultured on bare PDMS)	beat rate level compared with the maximum displacement value (cardiomyocytes; 1 μM drug, cultured on embedded PDMS)	contraction returned compared with before drug treatment (cardiomyocytes; bare PDMS cantilever)	contraction returned compared with before drug treatment (cardiomyocytes; embedded PDMS cantilever)	decreased contraction force returned after washing (cardiomyocytes; after washing for 48 h, AgNW-embedded PDMS substrate)	beat behavior after washing (cardiomyocytes; after washing for 48 h, control bare PDMS)	IC50 (cardiomyocytes; cardiomyocytes cultured on bare PDMS thin film)	IC50 (cardiomyocytes; cardiomyocytes cultured on embedded PDMS thin film)
Cc1cccc(CCN2CCC(C(=O)c3ccc(NS(C)(=O)=O)cc3)CC2)n1 [E-4031]	enhanced resistance															
Cc1ccc2c(c1)C(=O)C1(O)CCN(c3ccccc3)C1=N2 (stereo not shown) [blebbistatin]		~1000 nM	decrease only displacement	decrease both beat frequency and contraction force	did not return	≥ 70%	half displacement reduction	about 10%	no longer beat	20%	10%	≥ 75%	75%	not returned to the initial state	174 nM	521 nM
